Laboratory results reported in US12697331B2, “Methods of use of T-type calcium channel modulators” (PRAXIS PRECISION MEDICINES, INC., priority 2020, dated 2026).

Tests used:
essential tremor = conditions: cited from earlier work; for Efficacy for treating essential tremors in clinical trials: adverse effects led to patient discontinuance
[1] = cited from earlier work
[2] = Within-participant escalating dose trial Part B (20-120 mg titration): pharmacokinetics; conditions: titrated dosing schedule
Method: A trial was conducted to study the safety, tolerability, pharmacokinetics and pharmacodynamics of the compound of formula (I) in healthy participants. Each participant completed 3 study periods: Screening, Treatment period (12 or 31 days), and Safety follow-up.
In Part B, a randomized controlled trial was conducted. […] Patients were allowed to receive the compound of formula (I) daily at each of 60 mg, 80 mg, and 100 mg dose levels for an extended period of up to 2 days.
Patients were discharged on D33 after all study assessments were completed and scheduled for Safety Follow-up on Day 36 (±1 day) via telephone call. Pharmacokinetics of the compound of formula (I) was evaluated by performing LC/MS quantification of levels of the compound in plasma and urine. […] Phamacokinetic parameters determined for the compound of formula (I) include, but are not limited to, AUCt, AUCinf, AUCtau, Cmax, tmax, t1/2, CL/F and Vd/F.

[3] = Within-participant escalating dose trial Part B: safety and tolerability (TEAEs); assay type: in vivo, human
[4] = Within-participant escalating dose trial Part A: safety and tolerability (TEAEs); assay type: in vivo, human
Method: (§1) In Part A, an open label trial was conducted.

[5] = Within-participant escalating dose trial Part A (5, 10, 20 mg): plasma pharmacokinetics; assay type: in vivo, human
Method: as §1

[6] = Phase 1 single and multiple ascending doses of formulation 3: safety and tolerability; assay type: in vivo, human; conditions: single 60 mg, 6 healthy volunteers, no titration
Method: This was a 2-part, Phase 1 double blind, placebo controlled trial to assess the safety, tolerability, pharmacokinetics, and pharmacodynamics (including the KSS, the KDT, the SQSQ and 24-hour EEG recordings), of single, ascending (Part A: 20, 40, and 60 mg) and multiple, ascending (Part B: 20 and 40 mg for 8 days) doses of the 20 mg tablet (formulation 3) in healthy participants. […] Variability in Cmax and AUC increased with increasing dose following a single oral dose of the 20 mg tablet formulation (formulation 3) (FIG. 16).
Adverse events for the doses of 20 and 40 mg were transient and occurred at a rate similar to placebo. The following TEAEs were observed, all of which were mild to moderate: […]

[7] = 28-day essential tremor study (WO 2020/072773)

## CC(C)c1ccc(CC(=O)N[C@H](C)c2ccc(OCC(F)(F)F)cn2)cc1 [CX-8998]
Essential tremor; [7]
  Discontinuation due to intolerability of adverse events: 17%
  Discontinuation rate: 23%
[1]; Papapetropoulos et al. 2019, 2021
  Titrated daily dose reached: 20 mg
[1]; single doses, WO 2020/072773
  Highest non-titrated dose safely administered to patients: 16 mg

## CC(C)(C)NC(=O)CN1CCC(CNC(=O)c2cc(F)cc(Cl)c2)CC1 [compound of formula (I), N-((1-(2-(tert-butylamino)-2-oxoethyl)piperidin-4-yl)methyl)-3-chloro-5-fluorobenzamide]
[2]
  Increase of Cmax and AUC24 above values of a lower dosage not tolerated without titration: 2-3 fold
[3]; human, in vivo, 31 days
  Participants with at least one TEAE: 12 (100%)^ n (%)
  TEAE: Cardiac Disorders: 4 (33.3%) n (%)
  TEAE: Chest discomfort: 2 (16.7%) n (%)
  TEAE: Dizziness: 3 (25.0%) n (%)
  TEAE: General Disorders and Administration Site Conditions: 6 (50.0%) n (%)
  TEAE: Headache: 2 (16.7%) n (%)
  TEAE: Intoxicated sensation: 2 (16.7%) n (%)
  TEAE: Medical device site dermatitis: 3 (25.0%) n (%)
  TEAE: Nervous System Disorders: 5 (41.7%) n (%)
  TEAE: Palpitations: 2 (16.7%) n (%)
[3]; in vivo
  SAEs and severe AEs: no SAEs and no severe AEs
[3]; titration 20 to 120 mg per day, no maximum tolerated dosage identified
  Dose levels well-tolerated with a titrated dosing schedule: ≤ 120 mg per day
[4]; 5 mg (N = 8)
  Participants with at least one TEAE: 5 (62.5%) n (%)
  TEAE: Dry eye: 1 (12.5%) n (%)
  TEAE: Eye disorders: 2 (25.0%) n (%)
  TEAE: General Disorders and Administration Site Conditions: 3 (37.5%) n (%)
  TEAE: Headache: 2 (25.0%) n (%)
  TEAE: Lethargy: 1 (12.5%) n (%)
  TEAE: Medical device site dermatitis: 1 (12.5%) n (%)
  TEAE: Nervous System Disorders: 2 (25.0%) n (%)
  TEAE: Vessel puncture site thrombosis: 1 (12.5%) n (%)
[4]; 10 mg (N = 8)
  Participants with at least one TEAE: 5 (62.5%) n (%)
  TEAE: Dry eye: 2 (25.0%) n (%)
  TEAE: Eye disorders: 2 (25.0%) n (%)
  TEAE: General Disorders and Administration Site Conditions: 3 (37.5%) n (%)
  TEAE: Headache: 0 n (%)
  TEAE: Lethargy: 0 n (%)
  TEAE: Medical device site dermatitis: 2 (25.0%) n (%)
  TEAE: Nervous System Disorders: 0 n (%)
  TEAE: Vessel puncture site thrombosis: 1 (12.5%) n (%)
[4]; 20 mg (N = 8)
  Participants with at least one TEAE: 3 (37.5%) n (%)
  TEAE: Dry eye: 0 n (%)
  TEAE: Eye disorders: 0 n (%)
  TEAE: General Disorders and Administration Site Conditions: 1 (12.5%) n (%)
  TEAE: Headache: 1 (12.5%) n (%)
  TEAE: Medical device site dermatitis: 0 n (%)
  TEAE: Nervous System Disorders: 1 (12.5%) n (%)
  TEAE: Vessel puncture site thrombosis: 0 n (%)
[4]; Overall (N = 8)
  Participants with at least one TEAE: 7 (87.5%) n (%)
  TEAE: Dry eye: 3 (37.5%) n (%)
  TEAE: Eye disorders: 3 (37.5%) n (%)
  TEAE: Headache: 3 (37.5%) n (%)
  TEAE: Lethargy: 2 (25.0%) n (%)
  TEAE: Medical device site dermatitis: 3 (37.5%) n (%)
  TEAE: Nervous System Disorders: 3 (37.5%) n (%)
  TEAE: Vessel puncture site thrombosis: 2 (25.0%) n (%)
[5]; 5 mg dose, 24 hour sampling period
  Time the compound remained quantifiable in plasma: ≥ 24 h
[5]; single 5 mg dose, healthy volunteers
  Time by which plasma concentrations were quantifiable: ≤ 0.50 h
[6]
  Tolerability: not tolerated

## CC1(C)O[C@@H]2[C@@H](CO[C@@]3(COS(N)(=O)=O)OC(C)(C)O[C@@H]23)O1 [topiramate]
Essential tremor
  Efficacy for treating essential tremors in clinical trials: effective

## NS(=O)(=O)Cc1noc2ccccc12 [zonisamide]
Essential tremor
  Efficacy for treating essential tremors in clinical trials: effective
